Laboratory results reported in patent publication US11926625B2, “HPK1 antagonists and uses thereof” (Nimbus Saturn, Inc., priority 2021, dated 2024).

Target: T1, HPK1 (Homo sapiens, UniProt Q92918)
T1 construct: purchased Invitrogen
Experiment: HPK1 biochemical enzyme assay (microfluidic mobility shift, Caliper)
Settings: 1.5 nM HPK1 (Invitrogen), 1 mM ATP, 30 min preincubation, 60 min at RT, top concentration 3 μM; read-out: HPK1 1000UMATP caliper IC50
Protocol: Example 20. HPK1 Biochemical Enzyme Assay
HPK1 biochemical enzyme assay: HPK1 enzyme inhibition was measured using a microfluidic mobility shift assay. Reactions were performed in a 384-well plate, containing 1.5 nM HPK1 (Invitrogen), in assay buffer (Cama Biosciences; pH 7.4). Test compounds were titrated in ten point curves (top final assay concentration 3 μM), and preincubated with enzyme/substrate mix for 30 min prior to initiation of the reaction by addition of ATP (1 mM final concentration) and substrate (1 μM final concentration; Carna Biosciences) diluted in assay buffer supplemented by MgCl2 (final assay concentration of 5 mM). Following 60 min incubation at RT, the reaction was terminated by addition of 60 μl/well termination buffer (Carna Biosciences) and signal determination using a Caliper EZ Reader (Perkin Elmer, UK).

T1 sequence (Q92918 whole entry): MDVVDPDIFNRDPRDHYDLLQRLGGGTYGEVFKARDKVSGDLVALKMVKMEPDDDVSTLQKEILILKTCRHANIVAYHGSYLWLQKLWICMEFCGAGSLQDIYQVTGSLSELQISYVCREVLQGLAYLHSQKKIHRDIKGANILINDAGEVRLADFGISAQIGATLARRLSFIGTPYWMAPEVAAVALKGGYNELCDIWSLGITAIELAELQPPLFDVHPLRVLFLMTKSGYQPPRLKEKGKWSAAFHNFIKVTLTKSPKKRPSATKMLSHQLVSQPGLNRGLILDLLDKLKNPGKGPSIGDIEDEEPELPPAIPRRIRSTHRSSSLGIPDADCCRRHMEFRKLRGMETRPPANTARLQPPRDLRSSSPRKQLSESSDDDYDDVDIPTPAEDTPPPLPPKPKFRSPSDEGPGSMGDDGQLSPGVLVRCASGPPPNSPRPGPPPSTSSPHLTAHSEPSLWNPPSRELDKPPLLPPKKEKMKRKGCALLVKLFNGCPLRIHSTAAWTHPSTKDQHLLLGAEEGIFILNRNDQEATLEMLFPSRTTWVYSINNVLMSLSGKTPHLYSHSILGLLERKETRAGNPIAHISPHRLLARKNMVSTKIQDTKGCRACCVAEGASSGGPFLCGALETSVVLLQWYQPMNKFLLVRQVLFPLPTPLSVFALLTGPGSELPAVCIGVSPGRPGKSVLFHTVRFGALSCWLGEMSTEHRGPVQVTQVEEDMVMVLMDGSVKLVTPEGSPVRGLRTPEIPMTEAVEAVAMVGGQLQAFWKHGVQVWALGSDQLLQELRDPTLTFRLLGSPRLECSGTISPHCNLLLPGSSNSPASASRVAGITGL

Row | IC50 [µM] | Compound
1 | < 1 | CN1CCN(c2ccc(Nc3cnc(-c4cncn4C)c4c3C(=O)NC4)nc2)CC1 [Compound I-73, 4-(1-methyl-1H-imidazol-5-yl)-7-((5-(4-methylpiperazin-1-yl)pyridin-2-yl)amino)-2,3-dihydro-1H-pyrrolo[3,4-c]pyridin-1-one]
2 | 1 to 5 | CN1CCN(c2ccc(Nc3ccc(-c4ccncc4N4CC5CCC(C4)O5)c4c3C(=O)NC4)nc2)CC1 [Compound I-74]
3 | < 1 | O=C1NCc2c(-c3cncn3-c3ccccc3)ccc(Nc3ccc(N4CCNCC4)cn3)c21 [Compound I-75, 4-(1-phenyl-1H-imidazol-5-yl)-7-((5-(piperazin-1-yl)pyridin-2-yl)amino) isoindolin-1-one]
4 | 1 to 5 | CN1CCN(c2ccc(Nc3ccc(-c4ccnc(C5CCOC5)c4)c4c3C(=O)NC4)nc2)CC1 (stereo not shown) [Compound I-76]
5 | 1 to 5 | Cn1cnc(-c2ccc(Nc3ccc(N4CCNCC4)cn3)c3c2CNC3=O)c1-c1ccccc1 [Compound I-77, 4-(1-methyl-5-phenyl-1H-imidazol-4-yl)-7-((5-(piperazin-1-yl)pyridin-2-yl)amino) isoindolin-1-one]
6 | < 1 | Cn1c(-c2ccc(Nc3ccc(N4CCNCC4)cn3)c3c2CNC3=O)cnc1-c1ccccc1 [Compound I-78, 4-(1-methyl-2-phenyl-1H-imidazol-5-yl)-7-((5-(piperazin-1-yl)pyridin-2-yl)amino) isoindolin-1-one]
7 | < 1 | Cn1cnc(-c2ccccc2)c1-c1ccc(Nc2ccc(N3CCNCC3)cn2)c2c1CNC2=O [Compound I-79, 4-(1-methyl-4-phenyl-1H-imidazol-5-yl)-7-((5-(piperazin-1-yl)pyridin-2-yl)amino) isoindolin-1-one]
8 | 1 to 5 | O=C1NCc2c(-c3cn(-c4ccccc4)cn3)ccc(Nc3ccc(N4CCNCC4)cn3)c21 [Compound I-80, 4-(1-phenyl-1H-imidazol-4-yl)-7-((5-(piperazin-1-yl)pyridin-2-yl)amino) isoindolin-1-one]
9 | 1 to 5 | O=C1NCc2c(-n3ccnc3)ccc(Nc3ccc(N4CCNCC4)cn3)c21 [Compound I-81, 4-(1H-imidazol-1-yl)-7-((5-(piperazin-1-yl)pyridin-2-yl)amino) isoindolin-1-one]
10 | 1 to 5 | CN1CCN(c2ccc(Nc3ccc(-c4ccnc(N5CC6CCC(C5)O6)n4)c4c3C(=O)NC4)nc2)CC1 [Compound I-82, 4-(2-(8-oxa-3-azabicyclo [3.2.1]octan-3-yl)pyrimidin-4-yl)-7-((5-(4-methylpiperazin-1-yl)pyridin-2-yl)amino) isoindolin-1-one]
11 | 1 to 5 | O=C1NCc2c(Cc3ccccc3)ccc(Nc3ccc(N4CCNCC4)cn3)c21 [Compound I-83, 4-benzyl-7-((5-(piperazin-1-yl)pyridin-2-yl)amino) isoindolin-1-one]
12 | < 1 | CN1CCN(c2ccc(Nc3ccc(-c4cn[nH]c4)c4c3C(=O)NC4)nc2)CC1 [Compound I-84, 7-((5-(4-methylpiperazin-1-yl)pyridin-2-yl)amino)-4-(1H-pyrazol-4-yl)isoindolin-1-one]
13 | < 1 | CN1CCN(c2ccc(Nc3ccc(-c4ccnc(C#C[C@H]5CCCO5)c4)c4c3C(=O)NC4)nc2)CC1 [Compound I-85]
14 | 1 to 5 | CCc1cnc(N)nc1-c1ccc(Nc2ccc(N3CCN(C)CC3)cn2)c2c1CNC2=O [Compound I-86, 4-(2-amino-5-ethylpyrimidin-4-yl)-7-((5-(4-methylpiperazin-1-yl)pyridin-2-yl)amino) isoindolin-1-one]
15 | 1 to 5 | CN1CCN(c2ccc(Nc3ccc(-c4ccc(F)c(C5CCOCC5)c4)c4c3C(=O)NC4)nc2)CC1 [Compound I-87, 4-(4-fluoro-3-(tetrahydro-2H-pyran-4-yl)phenyl)-7-((5-(4-methylpiperazin-1-yl)pyridin-2-yl)amino) isoindolin-1-one]
16 | 1 to 5 | Cn1cc(-c2ccc(Nc3ccc(N4CCNCC4)cn3)c3c2CNC3=O)nc1-c1ccccc1 [Compound I-88, 4-(1-methyl-2-phenyl-1H-imidazol-4-yl)-7-((5-(piperazin-1-yl)pyridin-2-yl)amino) isoindolin-1-one]
